Reference: patent US11207269B2, “Medical use of sPLA2 hydrolysable liposomes” (priority 2009, dated 2021)

How the values were obtained:
[1] = system: human breast carcinoma cell line MT-3; assay: Efficacy in mice: MT-3 breast xenografts on nude mice; assay type: in vivo, NMRI nude female mice; conditions: 4 mg/kg/inj. weekly i.v.; treated tumors divided with control tumors; Cisplatin at day 31, LiPlaCis at day 26
Experimental: NMRI nude female mice (6-8 weeks) were inoculated subcutaneously into the left flank with 1*10^7 cells of the human breast carcinoma cell line MT-3. Only mice carrying exponentially growing tumors were selected for the study. […] Tumor growth was assessed three times a week by measuring two perpendicular diameters and tumor growth was normalized for differing starting sizes by calculating relative tumor volume. Body weight was measured three times a week. Blood samples were taken four days after the first injection to estimate white blood cells and thrombocytes by Coulter counter.

[2] = comparison value for cisplatin, within 3 hours; cited from earlier work

In the case of `N.N.[Cl][Pt][Cl]` [Cisplatin, cisplatin], the “Optimum T/C (%) [at day]” value [1] is given as 71% and the urinary excretion [2] is given as “above 90%”.
